Measured values taken from publication PMC8589421, “Impact of Type II LRRK2 inhibitors on signaling and mitophagy” (Biochemical Journal, 2021).
Like-named read-outs stand apart in the source and are kept apart here.

Assays:
[1] = test system: basal mitophagy, wild type MEFs; experiment: mito-QC basal mitophagy in wild-type primary MEFs; type: cell-based, mouse; settings: 24 h, 30–300 nM GZD-824, GSK3357679A 100 nM positive control
Experimental: To assess mitophagy, wild type, G2019S knock in, and LRRK2 knock out primary mouse embryonic fibroblasts (MEFs) were derived, from time-mated pregnant females at E12.5 as previously described. Briefly, cells were plated on glass coverslips and incubated with DMEM (Gibco, 11960-044) supplemented with 10% FBS, 2 mM L-Glutamine (Gibco, 2503-081), 1% non-essential amino acids (Gibco, 11140-035), 1% Antibiotics (Penicillin/Streptomycin 100 U/ml penicillin and 100 µg/ml streptomycin; Gibco), and 150 µM β-Mercaptoethanol (Gibco, 21985-023) at 37°C under a humidified 5% CO2 atmosphere. […] GSK3357679A 100 nM (Ding et al., in prep) was used as a positive control. At the end of the treatment, MEFs were briefly washed twice in DPBS (Gibco, 14190-094), and fixed in 3.7% Paraformaldehyde pH 7.00 (Sigma, P6148), 200 mM HEPES, for 20 min. Cells were then washed two times with DMEM, 10 mM HEPES, and then incubated for 10 min with DMEM, 10 mM HEPES. […] Images were acquired using a Nikon Eclipse Ti-S fluorescence microscope with a 63× objective. Images were analyzed using the mito-QC counter as previously described. Experiments were performed in 3–4 independent experiments and data was analyzed with a one-way ANOVA followed by a Dunnett's multiple comparison test using the GraphPad Prism software (version 8.4.3 (686)).

[2] = test system: Dundee panel of 140 protein kinases; experiment: Kinase profiling; type: biochemical
Excerpt: […] Results for each kinase are presented as the mean kinase activity ±S.D. for an assay undertaken in duplicate relative to a control kinase assay in which the inhibitor was omitted. Abbreviations and assay conditions used for each kinase are available (http://www.kinase-screen.mrc.ac.uk/services/premier-screen).

[3] = test system: phosphorylation of Rab12 (Ser105); experiment: Rab12 phospho-immunoblot in wild-type MEFs; type: cell-based, mouse
Experimental: (§1) Wild-type and homozygous LRRK2 [R1441C] (Jax, stock number: 009346), LRRK2[G2019S] Taconic, (model 13940) and LRRK2 [A2016T] (Jax, stock number: 021828)[7] knock-in MEF cells were isolated from littermate-matched mouse embryos on a C57BL/6J background at day E12.5 as described previously. MEFs were grown in Dulbecco's modified Eagle medium (DMEM GIBCO, #11960-085) containing 10% (by vol) fetal bovine serum (FBS), 2 mM L-glutamine, 100 U/ml penicillin, and […] streptomycin supplemented with non-essential amino acids and 1 mM sodium pyruvate. Human embryonic kidney 293 (HEK293) (#ATCC CRL-1573) and HeLa (#ATCC CCL-2) cells were purchased from American Tissue Culture Collection (ATCC) and cultured in DMEM containing 10% (by vol) FBS, 2 mM L-glutamine, 100 U/ml penicillin, and […] streptomycin. All cells were grown at 37°C, 5% (by vol) CO2 in a humidified atmosphere and regularly tested for mycoplasma contamination.
(§2) Inhibitors were dissolved in dimethyl sulfoxide (DMSO) (Sigma, #D2650). The inhibitors were diluted 1000× into cell medium. The equivalent volume of DMSO was added to the minus inhibitor controls. Experiments were performed in six-well plates, 10 cm dishes or 15 cm dishes depending on the amount of cell extract required.
(§3) Cells were lysed in an ice-cold lysis buffer containing 50 mM Tris–HCl, pH 7.4, 1% (by vol) Triton X-100, 10% (by vol) glycerol, 150 mM NaCl, 1 mM sodium orthovanadate, 50 mM NaF, 10 mM 2-glycerophosphate, 5 mM sodium pyrophosphate, 1 µg/ml microcystin-LR, and cOmplete EDTA-free protease inhibitor cocktail (Roche, #11836170001). Lysates were incubated on ice for 30 min and clarified by centrifugation at 20 800×g at 4°C for 20 min. Supernatants were quantified by Bradford assay (Bio-Rad Protein Assay Dye Reagent Concentrate #5000006) and samples prepared in 1× lithium dodecyl sulfate sample buffer final concentration (NuPage LDS Sample buffer 4× Invitrogen, #NP0008). When not deployed immediately, lysates were snap-frozen in liquid nitrogen and stored at −80°C until use.
Cell extracts were mixed with a quarter of a volume of NuPage LDS Sample buffer 4× Invitrogen and heated at 95°C for 5 min. […] At the end of electrophoresis, proteins were electrophoretically transferred onto the nitrocellulose membrane (GE Healthcare, Amersham Protran Supported 0.45 µm NC) at 100 V for 90 min on ice in the transfer buffer (48 mM Tris–HCl and 39 mM glycine supplemented with 20% methanol). Transferred membrane was blocked with 5% (w/v) skim milk powder dissolved in TBS-T [20 mM Tris–HCl, pH 7.5, 150 mM NaCl and 0.1% (v/v) Tween 20] at room temperature for 1 h. […]

[4] = test system: Rab10 pThr73, LRRK2 [G2019S]; experiment: Rab10 Thr73 phospho-immunoblot in LRRK2[G2019S] knock-in MEFs; type: cell-based, mouse; settings: LRRK2[G2019S] knock-in MEFs, 2 h, read-out: LRRK2 [G2019S] Rab10 pThr73 IC50
Experimental: as §1, §2
as §3, with “use. […]” for “use.”

Cc1ccc(C(=O)Nc2ccc(CN3CCN(C)CC3)c(C(F)(F)F)c2)cc1C#Cc1cnc2[nH]ncc2c1 [GZD-824]
stimulation of basal mitophagy [1]: ~2 fold
number of the 140 kinases assayed suppressed by over 80% ([2]; 0.1 μM inhibitor): 22
number of the 140 kinases assayed suppressed by over 80% ([2]; 1 μM inhibitor): 43
Rab12 phosphorylation level after treatment ([3]; 1 μM, 2 h): almost background levels
Rab12 phosphorylation over 24 h time course ([3]; 1 μM, 24 h): remained suppressed
time to 50% reduction of Rab12 phosphorylation ([3]; 1 μM, Figure 2C): ~10 min
IC50 ([3]; Mus musculus, 2 h, Figure 2A, read-out: IC50 inhibition of Rab12 phosphorylation): ~0.3 µM
IC50 [4]: 0.233 µM
IC50 ([4]; Mus musculus): 0.233 µM
